Assay results: patent publication US20230131899A1, “INHIBITORS OF MICROBIALLY INDUCED AMYLOID” (Axial Therapeutics, Inc., priority 2020, published 2023)
Where two headings read alike, the source gives them in different places.

What was measured:
E. coli CsgA = target: T1, E. coli CsgA (Escherichia coli, UniProt P28307); assay: In vitro ThioflavinT assay of CsgA aggregation (CsgA ThT Assay); format: biochemical
T1 construct: made in house; host or cells: E. coli NEB 3016 slyD::kan, pET11d
Method in brief: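 Purified C-terminal His-tagged CsgA, monomerised by desalting and 30-kDa filtration, at 2-20 μM with 20-40 μM ThT in 50 mM potassium phosphate pH 7.3, 1% DMSO, compounds 3.125-200 uM; room temperature, fluorescence (ex 438/em 495 nm) read every 15 min. Background-subtracted signal expressed as percent inhibition versus vehicle at 6-6.5 or 8-9 h, or as percent control AUC.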

[1] = test system: CsgA gene expression (csgBAC promoter-GFP reporter) in E. coli UTI89; assay: In vitro live cell fluorescent reporter assay of CsgA transcription (Reporter Assay); format: cell-based
Method in brief: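 Chromosomal single-copy csgBAC promoter–GFP reporter in E. coli UTI89, started at OD600 0.003 in YESCA broth with compound (0.14–100 μM, 1% DMSO), 20 h at 27 °C. GFP (ex 485/em 525 nm) background-subtracted and normalized to vehicle; IC50 and X[50] from curve fits. OD600 tracked growth effects.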

[2] = read-out: CsgA ThT Assay (10 μM CsgA) % Control AUC at 1005 minutes, 25 μM (activity range), CsgA 10 μM, black plates, compound 25 μM, 1005 minutes, class symbol
[3] = read-out: CsgA ThT Assay (10 μM CsgA) % Control AUC at 1005 minutes, 25 μM, mean AUC as % of DMSO control, CsgA 10 μM, black plates, compound 25 μM, 1005 minutes
[4] = read-out: CsgA ThT Assay (10 μM CsgA) % Control AUC at 1005 minutes, 100 μM (activity range), CsgA 10 μM, black plates, compound 100 μM, 1005 minutes, class symbol
[5] = read-out: CsgA ThT Assay (10 μM CsgA) % Control AUC at 1005 minutes, 100 μM, mean AUC as % of DMSO control, CsgA 10 μM, black plates, compound 100 μM, 1005 minutes
[6] = Escherichia coli, read-out: Reporter Assay Abs IC50 (activity range), median Abs IC50 in the CsgA reporter assay, class symbol
[7] = Escherichia coli, read-out: Reporter Assay Abs IC50 (μM), median Abs IC50 in the CsgA reporter assay, N/A = maximum expression reduction is <50% of control
[8] = read-out: CsgA ThT Assay (2 μM CsgA) % Control Bmax 25 μM, activity range, class symbol, CsgA 2 μM, white plates, compound 25 μM
[9] = read-out: CsgA ThT Assay (2 μM CsgA) % Control Bmax 25 μM, mean Bmax as percentage of DMSO control, CsgA 2 μM, white plates, compound 25 μM
[10] = read-out: CsgA ThT Assay (2 μM CsgA) % Control Bmax 100 μM, activity range, class symbol, CsgA 2 μM, white plates, compound 100 μM
[11] = read-out: CsgA ThT Assay (2 μM CsgA) % Control Bmax 100 μM, mean Bmax as percentage of DMSO control, CsgA 2 μM, white plates, compound 100 μM
[12] = Escherichia coli, read-out: Reporter Assay Abs IC50, activity range, class symbol

T1 sequence (P28307 23-151): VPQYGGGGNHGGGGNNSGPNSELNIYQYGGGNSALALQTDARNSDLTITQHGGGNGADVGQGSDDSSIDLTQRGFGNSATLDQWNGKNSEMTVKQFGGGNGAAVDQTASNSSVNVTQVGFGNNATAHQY

SMILES: O=C(O)C1CN(CCCCCO)S(=O)(=O)c2c(-c3cccc(C(F)(F)F)c3)c(Cc3cccc4ccccc34)cc(=O)n21 (stereo not shown) [Compound 086, 2-(5-hydroxypentyl)-8-(naphthalen-1-ylmethyl)-6-oxo-9-(3-(trifluoromethyl)phenyl)-3,4-dihydro-2H,6H-pyrido[1,2-e][1,2,5]thiadiazine-4-carboxylic acid 1,1-dioxide]
- remaining activity at 25 µM (E. coli CsgA; [2]): 31 to 60%
- remaining activity at 25 µM (E. coli CsgA; [3]): 33%
- remaining activity at 100 µM (E. coli CsgA; [4]): 11 to 31%
- remaining activity at 100 µM (E. coli CsgA; [5]): 20%
- IC50 [1, 6]: 4.6 to 10 µM
- IC50 [1, 7]: 9.6 µM

SMILES: CCCN1CC(C(=O)O)n2c(c(-c3cccc(C(F)(F)F)c3)c(Cc3cccc4ccccc34)c(C(C)C)c2=O)S1(=O)=O (stereo not shown) [Compound 125, 7-isopropyl-8-(naphthalen-1-ylmethyl)-6-oxo-2-propyl-9-(3-(trifluoromethyl)phenyl)-3,4-dihydro-2H,6H-pyrido[1,2-e][1,2,5]thiadiazine-4-carboxylic acid 1,1-dioxide]
- remaining activity at 25 µM (E. coli CsgA; [2]): 11 to 31%
- remaining activity at 25 µM (E. coli CsgA; [3]): 25%
- remaining activity at 100 µM (E. coli CsgA; [4]): 31 to 60%
- remaining activity at 100 µM (E. coli CsgA; [5]): 44%
- IC50 [1, 6]: 1.3 to 4.5 µM
- IC50 [1, 7]: 2.7 µM

SMILES: O=C(O)C1CNc2c(-c3cccc(C(F)(F)F)c3)c(Cc3cccc4ccccc34)cc(=O)n21 (stereo not shown) [Compound 080, 7-(naphthalen-1-ylmethyl)-5-oxo-8-(3-(trifluoromethyl)phenyl)-1,2,3,5-tetrahydroimidazo[1,2-a]pyridine-3-carboxylic acid]
- remaining activity at 25 µM (E. coli CsgA; [2]): > 60%
- remaining activity at 25 µM (E. coli CsgA; [3]): 80%
- remaining activity at 100 µM (E. coli CsgA; [4]): > 60%
- remaining activity at 100 µM (E. coli CsgA; [5]): 72%
- IC50 [1, 6]: > 10 µM
- IC50 [1, 7]: 26.3 µM

SMILES: CC(C)CN1CC(C(=O)O)n2c(c(-c3cccc(C(F)(F)F)c3)c(Cc3cccc4ccccc34)c(NC3CCCC3)c2=O)S1(=O)=O (stereo not shown) [Compound 145, 7-(cyclopentylamino)-2-isobutyl-8-(naphthalen-1-ylmethyl)-6-oxo-9-(3-(trifluoromethyl)phenyl)-3,4-dihydro-2H,6H-pyrido[1,2-e][1,2,5]thiadiazine-4-carboxylic acid 1,1-dioxide]
- remaining activity at 25 µM (E. coli CsgA; [8]): > 60%
- remaining activity at 25 µM (E. coli CsgA; [9]): 76%
- remaining activity at 100 µM (E. coli CsgA; [10]): 31 to 60%
- remaining activity at 100 µM (E. coli CsgA; [11]): 39%
- IC50 [1, 7]: 2 µM
- IC50 [1, 12]: 1.3 to 4.5 µM

SMILES: CN1CC(C(=O)O)n2c1c(-c1cccc(C(F)(F)F)c1)c(C(F)(F)c1cccc3ccccc13)cc2=O (stereo not shown) [Compound 135, 7-(difluoro(naphthalen-1-yl)methyl)-1-methyl-5-oxo-8-(3-(trifluoromethyl)phenyl)-1,2,3,5-tetrahydroimidazo[1,2-a]pyridine-3-carboxylic acid]
- remaining activity at 25 µM (E. coli CsgA; [8]): > 60%
- remaining activity at 25 µM (E. coli CsgA; [9]): 88%
- remaining activity at 100 µM (E. coli CsgA; [10]): > 60%
- remaining activity at 100 µM (E. coli CsgA; [11]): 67%
- IC50 [1, 7]: 4 µM
- IC50 [1, 12]: 1.3 to 4.5 µM

SMILES: O=C(O)C1CN(Cc2ccccc2)c2c(-c3cccc(C(F)(F)F)c3)c(Cc3ccccc3)c(Cl)c(=O)n21 (stereo not shown) [Compound 214, 1,7-dibenzyl-6-chloro-5-oxo-8-(3-(trifluoromethyl)phenyl)-1,2,3,5-tetrahydroimidazo[1,2-a]pyridine-3-carboxylic acid]
- remaining activity at 25 µM (E. coli CsgA; [8]): > 60%
- remaining activity at 25 µM (E. coli CsgA; [9]): 90%
- remaining activity at 100 µM (E. coli CsgA; [10]): > 60%
- remaining activity at 100 µM (E. coli CsgA; [11]): 84%
- IC50 [1, 7]: 1.8 µM
- IC50 [1, 12]: 1.3 to 4.5 µM

SMILES: O=C(O)C1CSc2c(-c3cccc(C(F)(F)F)c3)c(Cc3cccc4ccccc34)cc(=O)n21 (single isomer, unassigned) [Compound 011b, 7-(naphthalen-1-ylmethyl)-5-oxo-8-(3-(trifluoromethyl)phenyl)-2,3-dihydro-5H-thiazolo[3,2-a]pyridine-3-carboxylic acid]
- CsgA ThT Assay (10 μM CsgA) % Control AUC at 1005 minutes, 25 μM (activity range) (E. coli CsgA; CsgA 10 μM, black plates, compound 25 μM, 1005 minutes, class symbol): (++) (% control AUC of 31 to 60%)
- CsgA ThT Assay (10 μM CsgA) % Control AUC at 1005 minutes, 100 μM (activity range) (E. coli CsgA; CsgA 10 μM, black plates, compound 100 μM, 1005 minutes, class symbol): (++) (% control AUC of 31 to 60%)
- CsgA ThT Assay (10 μM CsgA) % Control AUC at 1005 minutes, 25 μM (E. coli CsgA; mean AUC as % of DMSO control, CsgA 10 μM, black plates, compound 25 μM, 1005 minutes): 54%
- CsgA ThT Assay (10 μM CsgA) % Control AUC at 1005 minutes, 100 μM (E. coli CsgA; mean AUC as % of DMSO control, CsgA 10 μM, black plates, compound 100 μM, 1005 minutes): 53%
- IC50 ([1]; read-out: Reporter Assay Abs IC50 (activity range), median Abs IC50 in the CsgA reporter assay, class symbol): 1.3 to 4.5 µM
- IC50 ([1]; read-out: Reporter Assay Abs IC50, median Abs IC50 in the CsgA reporter assay, N/A = maximum expression reduction is <50% of control): 4.1 µM

SMILES: C/C=C\c1c(Cc2cccc3ccccc23)c(-c2cccc(C(F)(F)F)c2)c2n(c1=O)C(C(=O)O)CN(C)S2(=O)=O (stereo not shown) [Compound 087, (Z)-2-methyl-8-(naphthalen-1-ylmethyl)-6-oxo-7-(prop-1-en-1-yl)-9-(3-(trifluoromethyl)phenyl)-3,4-dihydro-2H,6H-pyrido[1,2-e][1,2,5]thiadiazine-4-carboxylic acid 1,1-dioxide]
- remaining activity at 25 µM (E. coli CsgA; [2]): 11 to 31%
- remaining activity at 25 µM (E. coli CsgA; [3]): 30%
- remaining activity at 100 µM (E. coli CsgA; [4]): 11 to 31%
- remaining activity at 100 µM (E. coli CsgA; [5]): 15%
- IC50 [1, 6]: 4.6 to 10 µM
- IC50 [1, 7]: 6 µM

SMILES: CCCN1CC(C(=O)O)n2c(c(-c3cccc(C(F)(F)F)c3)c(Cc3cccc4ccccc34)c(CC(C)C)c2=O)S1(=O)=O (stereo not shown) [Compound 139, 7-isobutyl-8-(naphthalen-1-ylmethyl)-6-oxo-2-propyl-9-(3-(trifluoromethyl)phenyl)-3,4-dihydro-2H,6H-pyrido[1,2-e][1,2,5]thiadiazine-4-carboxylic acid 1,1-dioxide]
- remaining activity at 25 µM (E. coli CsgA; [8]): 31 to 60%
- remaining activity at 25 µM (E. coli CsgA; [9]): 51%
- remaining activity at 100 µM (E. coli CsgA; [10]): 31 to 60%
- remaining activity at 100 µM (E. coli CsgA; [11]): 35%
- IC50 [1, 7]: 2.5 µM
- IC50 [1, 12]: 1.3 to 4.5 µM

SMILES: O=C(O)C1CN(CCO)S(=O)(=O)c2c(-c3cccc(C(F)(F)F)c3)c(Cc3cccc4ccccc34)cc(=O)n21 (stereo not shown) [Compound 084, 2-(2-hydroxyethyl)-8-(naphthalen-1-ylmethyl)-6-oxo-9-(3-(trifluoromethyl)phenyl)-3,4-dihydro-2H,6H-pyrido[1,2-e][1,2,5]thiadiazine-4-carboxylic acid 1,1-dioxide]
- remaining activity at 25 µM (E. coli CsgA; [2]): 31 to 60%
- remaining activity at 25 µM (E. coli CsgA; [3]): 57%
- remaining activity at 100 µM (E. coli CsgA; [4]): 11 to 31%
- remaining activity at 100 µM (E. coli CsgA; [5]): 19%
- IC50 [1, 6]: > 10 µM
- IC50 [1, 7]: 27 µM

SMILES: CCc1c(Cc2cccc3ccccc23)c(-c2cccc(C(F)(F)F)c2)c2n(c1=O)C(C(=O)O)CN(C(C)C)S2(=O)=O (stereo not shown) [Compound 115, 7-ethyl-2-isopropyl-8-(naphthalen-1-ylmethyl)-6-oxo-9-(3-(trifluoromethyl)phenyl)-3,4-dihydro-2H,6H-pyrido[1,2-e][1,2,5]thiadiazine-4-carboxylic acid 1,1-dioxide]
- remaining activity at 25 µM (E. coli CsgA; [2]): 31 to 60%
- remaining activity at 25 µM (E. coli CsgA; [3]): 35%
- remaining activity at 100 µM (E. coli CsgA; [4]): 11 to 31%
- remaining activity at 100 µM (E. coli CsgA; [5]): 23%
- IC50 [1, 6]: 4.6 to 10 µM
- IC50 [1, 7]: 7.2 µM

SMILES: CCc1c(Cc2cccc3ccccc23)c(-c2cccc(C(F)(F)F)c2)c2n(c1=O)C(C(=O)O)CN2C (stereo not shown) [Compound 136, 6-ethyl-1-methyl-7-(naphthalen-1-ylmethyl)-5-oxo-8-(3-(trifluoromethyl)phenyl)-1,2,3,5-tetrahydroimidazo[1,2-a]pyridine-3-carboxylic acid]
- remaining activity at 25 µM (E. coli CsgA; [8]): > 60%
- remaining activity at 25 µM (E. coli CsgA; [9]): 77%
- remaining activity at 100 µM (E. coli CsgA; [10]): 11 to 31%
- remaining activity at 100 µM (E. coli CsgA; [11]): 27%
- IC50 [1, 7]: 3.5 µM
- IC50 [1, 12]: 1.3 to 4.5 µM

SMILES: CN1CC(C(=O)O)n2c(c(-c3cccc(C(F)(F)F)c3)c(Cc3cccc4ccccc34)c(NC3CCOCC3)c2=O)S1(=O)=O (stereo not shown) [Compound 072, 2-methyl-8-(naphthalen-1-ylmethyl)-6-oxo-7-((tetrahydro-2H-pyran-4-yl)amino)-9-(3-(trifluoromethyl)phenyl)-3,4-dihydro-2H,6H-pyrido[1,2-e][1,2,5]thiadiazine-4-carboxylic acid 1,1-dioxide]
- remaining activity at 25 µM (E. coli CsgA; [2]): 11 to 31%
- remaining activity at 25 µM (E. coli CsgA; [3]): 24%
- remaining activity at 100 µM (E. coli CsgA; [4]): < 10%
- remaining activity at 100 µM (E. coli CsgA; [5]): 10%
- IC50 [1, 6]: 4.6 to 10 µM
- IC50 [1, 7]: 6.9 µM

SMILES: COc1ccc(CN2C[C@H](C(=O)O)n3c(c(-c4cccc(C(F)(F)F)c4)c(Cc4cccc5ccccc45)cc3=O)S2(=O)=O)cc1 (single isomer, unassigned) [Compound 026b]
- remaining activity at 25 µM (E. coli CsgA; [2]): 31 to 60%
- remaining activity at 25 µM (E. coli CsgA; [3]): 47%
- IC50 [1, 6]: 1.3 to 4.5 µM
- IC50 [1, 7]: 2.8 µM
